This test concerns L1210 leukemia ip in BDF1 mice, survival T/C. Put plainly: NCI In Vivo Anticancer Drug Screen. Data for tumor model L1210 Leukemia (intraperitoneal) in B6D2F1 (BDF1) mice. The note with it: endpoint: mean survival time, higher = longer survival. Put shortly: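 Each compound was tested against a transplantable tumor grown in mice. The endpoint was survival, with treated animals benchmarked against vehicle controls as a simple ratio.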

Setting [1] is: dose: 100.0 mg/kg/injection, schedule: Q04DX003 (ip), vehicle: saline.
Setting [2] is: dose: 100.0 mg/kg/injection, schedule: Q01DX009 (ip), vehicle: saline with Tween-80.
Where [3] appears, read: dose: 200.0 mg/kg/injection, schedule: Q01DX009 (ip), vehicle: saline with Tween-80.
Setting [4] is: dose: 400.0 mg/kg/injection, schedule: Q01DX009 (ip), vehicle: saline with Tween-80.
The mark [5] stands for this setting: dose: 100.0 mg/kg/injection, schedule: Q01DX001 (ip), vehicle: saline with Tween-80.
[6] abbreviates: dose: 200.0 mg/kg/injection, schedule: Q01DX001 (ip), vehicle: saline with Tween-80.
The mark [7] stands for this setting: dose: 100.0 mg/kg/injection, schedule: Q04DX003 (ip), vehicle: Klucel (hydroxypropylcellulose) (HPC).
[8] abbreviates: dose: 200.0 mg/kg/injection, schedule: Q04DX003 (ip), vehicle: Klucel (hydroxypropylcellulose) (HPC).
Where [9] appears, read: dose: 400.0 mg/kg/injection, schedule: Q04DX003 (ip), vehicle: Klucel (hydroxypropylcellulose) (HPC).
The mark [10] stands for this setting: dose: 100.0 mg/kg/injection, schedule: Q04DX002 (ip), vehicle: saline with Tween-80.
[11] abbreviates: dose: 200.0 mg/kg/injection, schedule: Q04DX002 (ip), vehicle: saline with Tween-80.
Where [12] appears, read: dose: 400.0 mg/kg/injection, schedule: Q01DX001 (ip), vehicle: saline with Tween-80.
[13] abbreviates: dose: 50.0 mg/kg/injection, schedule: Q01DX009 (ip), vehicle: saline.
[14] abbreviates: dose: 100.0 mg/kg/injection, schedule: Q01DX009 (ip), vehicle: saline.
The mark [15] stands for this setting: dose: 100.0 mg/kg/injection, schedule: Q04DX003 (ip), vehicle: saline with Tween-80.
Where [16] appears, read: dose: 25.0 mg/kg/injection, schedule: Q01DX009 (ip), vehicle: saline.

Where “and” joins values, the source holds several entries; their conditions need not be identical. Identical values can stand only once. Toxic doses and inconclusive results are not listed.

Consider `COC(=O)C1CC(=O)N(Cc2ccccc2)C1` (centres undefined), for which the T/C (dose: 100.0 mg/kg/injection, schedule: Q04DX002 (ip), vehicle: Klucel (hydroxypropylcellulose) (HPC)) is 89 % of control; the T/C (dose: 200.0 mg/kg/injection, schedule: Q04DX002 (ip), vehicle: Klucel (hydroxypropylcellulose) (HPC)) is 100 % of control; the T/C (dose: 400.0 mg/kg/injection, schedule: Q04DX002 (ip), vehicle: Klucel (hydroxypropylcellulose) (HPC)) is 92 % of control.
As to `CC(C)N=C(c1ccccc1)N(O)c1ccccc1`, the T/C runs as follows: (dose: 75.0 mg/kg/injection, schedule: Q01DX001 (ip), vehicle: saline) 93 % of control; (dose: 150.0 mg/kg/injection, schedule: Q01DX001 (ip), vehicle: saline) 101 % of control; (dose: 300.0 mg/kg/injection, schedule: Q01DX001 (ip), vehicle: saline) 91 % of control.
In the case of `C=CS(=O)(=O)c1ccc([N+](=O)[O-])cc1`, the T/C by setting is: (dose: 6.25 mg/kg/injection, schedule: Q04DX002 (ip), vehicle: saline with Tween-80) 92 % of control; (dose: 12.5 mg/kg/injection, schedule: Q04DX002 (ip), vehicle: saline with Tween-80) 101 % of control; (dose: 25.0 mg/kg/injection, schedule: Q04DX002 (ip), vehicle: saline with Tween-80) 94 % of control.
Regarding `CNC(=O)NC`, the T/C was 94 % of control under setting [1]; 102 % of control (dose: 200.0 mg/kg/injection, schedule: Q04DX003 (ip), vehicle: saline); 94 % of control (dose: 400.0 mg/kg/injection, schedule: Q04DX003 (ip), vehicle: saline).
Take `O=S(O)c1ccc2cc(O)c(S(=O)O)cc2c1`: the T/C is, setting by setting: (dose: 100.0 mg/kg/injection, schedule: Q01DX001 (ip), vehicle: saline) 95 % of control; under setting [2], 95 % of control; (dose: 200.0 mg/kg/injection, schedule: Q01DX001 (ip), vehicle: saline) 97 % of control; under setting [3], 95 % of control; (dose: 400.0 mg/kg/injection, schedule: Q01DX001 (ip), vehicle: saline) 97 % of control; under setting [4], 92 % of control.
For the compound `OC(c1ccc(F)cc1)(c1ccc(F)cc1)C1CC1`, the T/C is 106 % of control under setting [5] and 105 % of control under setting [6].
In the case of `C(/C=C/c1ccccc1)=Nc1ccc2c(c1)Cc1ccccc1-2`, the T/C under setting [7] is 94 % of control, the T/C under setting [8] was 89 % of control and the T/C under setting [9] was 89 % of control.
Consider `[NH-]C(CC(N)=O)C(=O)O.[NH-]C(CC(N)=O)C(=O)O.[Pd+2]` (centres undefined), for which the T/C is 93 % of control (dose: 50.0 mg/kg/injection, schedule: Q01DX009 (ip), vehicle: saline with Tween-80); 101 % of control under setting [2]; 93 % of control under setting [10]; 108 % of control under setting [3]; 97 % of control under setting [11].
For the compound `CCCCP(=O)(CCCC)C1CCCC1`, the T/C runs as follows: under setting [5], 103 % of control; under setting [6], 100 % of control; under setting [12], 90 % of control.
As for `CCN(CC)CCOc1cccc(Oc2ccccc2)c1`, the T/C reads like this: under setting [13], 96 % of control; under setting [14], 117 % of control; under setting [1], 98 % of control.
`Nc1cccc(CCc2nc(N)nc(N)c2-c2ccc(Cl)c(Cl)c2)c1`: the T/C under setting [5] is 95 % of control, the T/C under setting [6] is 109 % of control and the T/C under setting [12] was 109 % of control.
On to `O=C(C[n+]1cccc(C(=O)Nc2ccccc2)c1)Nc1ccccc1`, for which the T/C under setting [1] is 95 % of control.
For the compound `CCN(CC)CCN1C(=O)CN=C(c2ccccn2)c2cc(Cl)ccc21`, the T/C runs as follows: under setting [13], 101 % of control; under setting [14], 104 % of control; under setting [15], 97 % of control; (dose: 200.0 mg/kg/injection, schedule: Q01DX009 (ip), vehicle: saline) 112 % of control; (dose: 200.0 mg/kg/injection, schedule: Q04DX003 (ip), vehicle: saline with Tween-80) 92 % of control.
For `CCOC(=O)c1c[nH]c2ccc([N+](=O)[O-])cc2c1=O`, the T/C by setting is: (dose: 25.0 mg/kg/injection, schedule: Q01DX001 (ip), vehicle: Klucel (hydroxypropylcellulose) (HPC)) 97 % of control; (dose: 50.0 mg/kg/injection, schedule: Q01DX001 (ip), vehicle: Klucel (hydroxypropylcellulose) (HPC)) 97 % of control; (dose: 100.0 mg/kg/injection, schedule: Q01DX001 (ip), vehicle: Klucel (hydroxypropylcellulose) (HPC)) 97 % of control.
`Cc1ccc(S(=O)(=O)OCC2C3CCC(C4CCC43)C2COS(=O)(=O)c2ccc(C)cc2)cc1` (centres undefined): the T/C was 96 % of control under setting [7], 93 % of control under setting [8] and 91 % of control under setting [9].
For `Oc1ccccc1C=Nc1cccc(Cl)c1Cl` the same measures were 91 % of control, 98 % of control and 100 % of control.
In the case of `CC(=O)OCCC(COC(C)=O)n1ccc(=O)[nH]c1=O` (centres undefined), the T/C was 91 % of control under setting [10]; 105 % of control under setting [11]; 102 % of control (dose: 400.0 mg/kg/injection, schedule: Q04DX002 (ip), vehicle: saline with Tween-80).
Regarding `Cc1ccc(C(C)C)cc1NC(=O)Nc1ccccc1F`, the T/C is 91 % of control (dose: 100.0 mg/kg/injection, schedule: Q01DX009 (ip), vehicle: Klucel (hydroxypropylcellulose) (HPC)) and 86 % of control (dose: 200.0 mg/kg/injection, schedule: Q01DX009 (ip), vehicle: Klucel (hydroxypropylcellulose) (HPC)).
As to `O=P(N(CCCl)CCCl)(N1CCCCC1)N1CCCCC1`, the T/C runs as follows: (dose: 50.0 mg/kg/injection, schedule: Q01DX Z (ip), vehicle: saline) 86 % of control; (dose: 100.0 mg/kg/injection, schedule: Q01DX Z (ip), vehicle: saline) 88 % of control; (dose: 200.0 mg/kg/injection, schedule: Q01DX Z (ip), vehicle: saline) 90 % of control.
In the case of `CCCCOc1ccc(N)cn1`, the T/C by setting is: under setting [16], 95 % of control; under setting [13], 95 % of control; under setting [14], 113 % of control; under setting [1], 96 % of control.
Turning to `O=c1ccc([N+](=O)[O-])cn1Cc1ccccc1`, the T/C reads like this: under setting [5], 114 % of control; under setting [2], 106 % of control; under setting [6], 100 % of control; under setting [3], 98 % of control; under setting [12], 96 % of control; under setting [4], 106 % of control.
Turning to `FC(F)(F)c1nc2nc(Cl)c(Cl)nc2[nH]1`, the T/C is 99 % of control (dose: 6.25 mg/kg/injection, schedule: Q01DX009 (ip), vehicle: saline); 94 % of control (dose: 12.5 mg/kg/injection, schedule: Q01DX009 (ip), vehicle: saline); 106 % of control (dose: 25.0 mg/kg/injection, schedule: Q01DX001 (ip), vehicle: saline with Tween-80); 95 % of control (dose: 25.0 mg/kg/injection, schedule: Q01DX009 (ip), vehicle: other); 103 % of control under setting [16]; 113 % of control (dose: 33.0 mg/kg/injection, schedule: Q01DX009 (ip), vehicle: other). Further, the T/C is 121 % of control (dose: 44.0 mg/kg/injection, schedule: Q04DX003 (ip), vehicle: other); 94 % of control (dose: 44.0 mg/kg/injection, schedule: Q04DX003 (ip), vehicle: saline sonified); 102 % of control and 103 % of control (dose: 44.0 mg/kg/injection, schedule: Q04DX003 (ip), vehicle: saline with Tween-80); 96 % of control (dose: 50.0 mg/kg/injection, schedule: Q01DX001 (ip), vehicle: saline with Tween-80); 116 % of control under setting [13]; 122 % of control (dose: 66.0 mg/kg/injection, schedule: Q04DX003 (ip), vehicle: saline sonified). Besides, the T/C (dose: 66.0 mg/kg/injection, schedule: Q04DX003 (ip), vehicle: saline with Tween-80) is 109 % of control; the T/C under setting [5] is 110 % of control; the T/C under setting [7] is 154 % of control; the T/C (dose: 100.0 mg/kg/injection, schedule: Q04DX003 (ip), vehicle: other) was 176 % of control; the T/C (dose: 100.0 mg/kg/injection, schedule: Q04DX003 (ip), vehicle: saline sonified) is 159 % of control; the T/C under setting [15] was 153 % of control and 156 % of control. Also, the T/C (dose: 150.0 mg/kg/injection, schedule: Q04DX003 (ip), vehicle: saline with Tween-80) is 102 % of control.

These data come from PubChem BioAssay AID248 (DTP/NCI, 2004).
